Results taken from US7459449B2 (priority 2004, dated 2008).
Structures can show the parent of a compound that is named as a salt. Where two headings read alike, the source gives them in different places.

Tests used:
[1] = Tendency to form solvates (acetone); type: physicochemical; details: generally acetone as the solvent
Source text: Additionally the inventive salts are not prone to forming solvates. Solvates with organic solvents such as acetone, dichloromethane, dioxane, etc., are inconvenient in pharmaceutical applications because of the toxicity of the solvent. […] A typical example of such a solvate salt is the acetone solvate of olanzapine succinate. The solvent may nevertheless be present in the wet cake of the crude material after isolation in solid state, but a solvent-free product should be obtained by ordinary means of drying. A solvent-free salt (i.e. less than 0.5%, preferably less than 0.1%, of the solvent present) is particularly preferred as the absence of the solvent is advantageous for pharmaceutical applications.

[2] = Hygroscopicity; type: physicochemical
[3] = Stability against light; type: physicochemical
[4] = Water solubility test at 10 mg/ml; details: thermodynamic from solid
[5] = cited from earlier work
[6] = Isolation of the olanzapine salt in solid form; type: physicochemical
[7] = Stability of 1% aqueous solution against precipitation; details: for Is 1% solution stable from precipitation?: 1% aqueous solution, at least 12 to 24 hours (overnight)
Source text: (§1) A failure was considered to be 1% or more of impurities being formed; i.e. if 1% or more formed, then the salt is reported as “No,” not stable, for the corresponding test.

[8] = Solid state stability (impurity formation on storage); type: physicochemical; details: short period of storage
Source text: as §1

Molecule | Is there low tendency to form solvates? [1] | Readily isolatable in solid form? [6] | Is 1% solution stable from precipitation? [7] | other results
Cc1cc2c(s1)Nc1ccccc1N=C2N1CCN(C)CC1.O=C(O)C(O)C(O)C(=O)O.O=C(O)C(O)C(O)C(=O)O [Di-L-tartrate, reference compound] | No |  |  | 
Cc1cc2c(s1)Nc1ccccc1N=C2N1CCN(C)CC1.O=C(O)C=CC(=O)O.O=C(O)C=CC(=O)O [Dimaleate, reference compound] | No |  |  | 
Cc1cc2c(s1)Nc1ccccc1N=C2N1CCN(C)CC1.Cc1cc2c(s1)Nc1ccccc1N=C2N1CCN(C)CC1.O=C(O)CCCCC(=O)O [Hemiadipate, Olanzapine Hemi-Adipate] | Yes |  |  | 
Cc1cc2c(s1)Nc1ccccc1N=C2N1CCN(C)CC1.Cc1cc2c(s1)Nc1ccccc1N=C2N1CCN(C)CC1.O=S(=O)(O)O [Hemisulfate, reference compound] | No |  |  | 
Cc1cc2c(s1)Nc1ccccc1N=C2N1CCN(C)CC1.O=C(O)CC(=O)O [Hydrogenmalonate, Olanzapine Hydrogenmalonate] | Yes |  |  | hygroscopicity [2]: generally non-hygroscopic; stability against the action of light [3]: sufficiently stable against the action of light
CC(O)C(=O)O.Cc1cc2c(s1)Nc1ccccc1N=C2N1CCN(C)CC1 [Mono-L-lactate, Olanzapine Lactate] | Yes |  |  | 
Cc1cc2c(s1)Nc1ccccc1N=C2N1CCN(C)CC1.O=C(O)c1ccccc1 [Monobenzoate, Olanzapine Benzoate] | Yes |  |  | hygroscopicity [2]: generally non-hygroscopic; stability against the action of light [3]: sufficiently stable against the action of light
CCS(=O)(=O)O.Cc1cc2c(s1)Nc1ccccc1N=C2N1CCN(C)CC1 [Monoesylate, Olanzapine Esylate] | Yes |  |  | 
Cc1cc2c(s1)Nc1ccccc1N=C2N1CCN(C)CC1 [Monohydrochloride, Olanzapine Monohydrochloride] |  |  |  | solubility [4]: > 10000 µg/mL
Cc1cc2c(s1)Nc1ccccc1N=C2N1CCN(C)CC1.O=S(=O)(O)O [Monosulfate, Olanzapine Hydrogensulfate] | No |  |  | 
Cc1cc2c(s1)Nc1ccccc1N=C2N1CCN(C)CC1.O.O=C(O)c1cc2ccccc2c(Cc2c(O)c(C(=O)O)cc3ccccc23)c1O [Pamoate, olanzapine pamoate, reference compound] | No |  |  | water solubility (in words), background [5]: insoluble in water
Mandelate [reference compound] |  | No |  | 
Olanzapine |  |  |  | water solubility (in words), background [5]: insoluble in water; solubility at pH 6.8 ([5]; pH 6.8, marketed free base): 0.02 mg/ml
Olanzapine Acetate [Monoacetate] | Yes | Yes | No | 
Olanzapine Besylate [Monobesylate] | Yes | Yes | No | 
Olanzapine Hemi-Succinate [Hemisuccinate] | No | Yes | No | 
Olanzapine Hemifumarate | No | Yes | No | 
Olanzapine Hydrogenmaleate | Yes | Yes | No | hygroscopicity [2]: generally non-hygroscopic; stability against the action of light [3]: sufficiently stable against the action of light; water solubility (in words) (listed as maleate): good water solubility; water solubility (in words) (listed as olanzapine hydrogenmaleate): soluble in water; hydrolysis by water (liberation of olanzapine base in aqueous solution) ([7]; aqueous solution): hydrolysable by water
Olanzapine Mesylate [Monomesylate] | No | Yes | No | 
Olanzapine Mono-Tartrate [Mono-L-tartrate] | No | Yes | Yes | 
Tosylate [reference compound] |  | No |  | 
olanzapine dibesylate [reference compound] |  | Yes** |  | solid state behaviour on storage [8]: become oily after a short period of storage
olanzapine dimesylate [reference compound] |  | Yes** |  | solid state behaviour on storage [8]: become oily after a short period of storage
